Source: article PMC9085577, “Discovery of a Potent and Orally Active Dual GPBAR1/CysLT1R Modulator for the Treatment of Metabolic Fatty Liver Disease” (Frontiers in Pharmacology, 2022)

System: liver transcriptome
Assay: AmpliSeq liver transcriptome of HFD-F mice
Assay type: in vivo
Settings: liver
Source text: C57BL/6J male mice were fed a high fat diet (HFD) containing 59 KJ% fat plus 1% cholesterol, w/o sugar (ssniff ® EF R/M acc. D12330 mod. 22,7 ME/kg) and fructose (HFD-F) in drinking water (42 g/L), or normal chow diet for 61 days. Food intake was estimated as the difference of weight between the offered and the remnant amount of food at 3-days intervals. The food was provided as pressed pellets and the residual spillage was not considered. After 7 days, HFD-F mice were randomized to receive HFD-F alone or in combination with compound 2 (30 mg/kg/day) by gavage until the end of the experiment. Doses of each agent were chosen according to previously published data. Mice were housed under controlled temperature (22°C) and photoperiods (12:12-h light/dark cycle), allowed unrestricted access to standard mouse chow and tap water. The experimental protocol was approved by the Animal Care and Use Committee of the University of Perugia and by the Italian Minister of Health and Istituto Superiore di Sanità (Italy) and was in agreement with the European guidelines for use of experimental animals (permission n. 583/2017-PR). The general health of the animals was monitored daily by the Veterinarian in the animal facility. At the day of sacrifice, fed mice were deeply anesthetized with a mixture of tiletamine hypochloride and zolazepam hypochloride/xylazine at a dose of 50/5 mg/kg and sacrificed before 12 a.m.
High-quality RNA was extracted from mice livers, using the Direct-zol™ RNA MiniPrep w/Zymo-Spin™ IIC Columns (Zymo Research, Irvine, CA) according to the manufacturer’s instructions. RNA quality and quantity were assessed with the Qubit® RNA HS Assay Kit and a Qubit 3.0 fluorometer (Invitrogen, Carlsbad, CA) followed by agarose gel electrophoresis. Libraries were generated using the Ion AmpliSeq™ Transcriptome Mouse Gene Expression Core Panel and Chef-Ready Kit (Comprehensive evaluation of AmpliSeq transcriptome, a whole transcriptome RNA sequencing methodology) (Thermo Fisher Scientific, Waltham, MA). Briefly, 10 ng of RNA was reverse transcribed with SuperScript™ Vilo™ cDNA Synthesis Kit (Thermo Fisher Scientific, Waltham, MA) before library preparation on the Ion Chef™ instrument (Thermo Fisher Scientific, Waltham, MA). The resulting cDNA was amplified to prepare barcoded libraries using the Ion Code™ PCR Plate, and the Ion AmpliSeq™ Transcriptome Mouse Gene Expression Core Panel (Thermo Fisher Scientific, Waltham, MA), Chef-Ready Kit, according to the manufacturer’s instructions. Barcoded libraries were combined to a final concentration of 100 p.m., and used to prepare Template-Positive Ion Sphere™ (Thermo Fisher Scientific, Waltham, MA) Particles to load on Ion 540™ Chips, using the Ion 540™ Kit-Chef (Thermo Fisher Scientific, Waltham, MA). Sequencing was performed on an Ion S5™ Sequencer with Torrent Suite™ Software v6 (Thermo Fisher Scientific, Waltham, MA). The analyses were performed with a range of fold <−2 and >+2 and a p value <0.05, using Transcriptome Analysis Console Software (version 4.0.1), certified for AmpliSeq analysis (Thermo-Fisher). The transcriptomic data have been deposited as dataset on Mendeley data repository (reference number linking to the repository: Fiorucci, Stefano; Biagioli, Michele; Marchianò, Silvia; Di Giorgio, Cristina (2021), “Discovery of potent dual GPBAR1/CysLT1R modulator for the treatment of metabolic fatty liver disease,” Mendeley Data, V1, doi: 10.17632/6dnrk9fc72.1).

## O=C(O)c1cccc(-c2ccc(OCc3ccc4ccccc4n3)cc2)c1 [Compound 2, 4'-(quinolin-2-ylmethoxy)-[1,1′-biphenyl]-3-carboxylic acid]
HFD-F + compound 2
  Uhrf1 transcript Avg (log2): 0.79 log2
  Upp2 transcript Avg (log2): 9.06 log2
  Usp2 transcript Avg (log2): 5.61 log2
  Wrn transcript Avg (log2): 3.27 log2
  Zfp101 transcript Avg (log2): 1.28 log2
  Zfp445 transcript Avg (log2): 6.23 log2
HFD-F + compound 2 vs HFD-F
  1810011O10Rik transcript Fold Change: -2.01
  2310001K24Rik transcript Fold Change: 2.31
  2310039H08Rik transcript Fold Change: -2.25
  4833423E24Rik transcript Fold Change: 2.15
  6430573F11Rik transcript Fold Change: -2.15
  AW549542 transcript Fold Change: 2.59
  Abcb1a transcript Fold Change: 2.07
  Acod1 transcript Fold Change: -7.35
  Acot3 transcript Fold Change: 2.07
  Adam8 transcript Fold Change: -2.4
  Adam11 transcript Fold Change: 2.06
  Anxa2 transcript Fold Change: -2.16
  Apcs transcript Fold Change: -2.14
  Arntl transcript Fold Change: -2.68
  Arsg transcript Fold Change: -2.22
  Atp1a3 transcript Fold Change: -2.15
  Aurka transcript Fold Change: -2.11
  Avpr1a transcript Fold Change: -2.31
  Bcat1 transcript Fold Change: -2.27
  C920009B18Rik transcript Fold Change: -2.05
  Cabyr transcript Fold Change: 2.35
  Capn11 transcript Fold Change: 3.56
  Ccl2 transcript Fold Change: –9.45
  Ccl3 transcript Fold Change: –45.68
  Ccl4 transcript Fold Change: -3.76
  Ccl7 transcript Fold Change: -5.24
  Ccl9 transcript Fold Change: -2.83
  Cd9 transcript Fold Change: -2.05
  Cd14 transcript Fold Change: -2.38
  Cd36 transcript Fold Change: -2.5
  Cd63 transcript Fold Change: -2.18
  Cdk1 transcript Fold Change: -2.15
  Cdkl2 transcript Fold Change: -2.13
  Cdkn1a transcript Fold Change: -7.58
  Cdkn3 transcript Fold Change: -2.22
  Ces2b transcript Fold Change: 3.35
  Cetn4 transcript Fold Change: 2.21
  Chka transcript Fold Change: -3.91
  Chrna4 transcript Fold Change: -3.1
  Cidea transcript Fold Change: -4.55
  Cidec transcript Fold Change: -3.63
  Cirbp transcript Fold Change: 2.31
  Ckap2 transcript Fold Change: -2.19
  Clec4e transcript Fold Change: -2.29
  Clec4d transcript Fold Change: -2.99
  Col27a1 transcript Fold Change: 3.11
  Csf3 transcript Fold Change: -6.94
  Cxcl2 transcript Fold Change: –12.23
  Cyp1a2 transcript Fold Change: 4.77
  Cyp2a5 transcript Fold Change: 2.79
  Cyp7a1 transcript Fold Change: 3.98
  Cyp17a1 transcript Fold Change: -2.12
  D17H6S56E-5 transcript Fold Change: -2.1
  Dbp transcript Fold Change: 3.21
  Defb1 transcript Fold Change: -2.44
  Derl2 transcript Fold Change: -2.01
  Dhrs9 transcript Fold Change: -2.42
  Dtx4 transcript Fold Change: -2.1
  Dusp8 transcript Fold Change: -2.11
  Egr1 transcript Fold Change: -4.09
  Ell transcript Fold Change: 2.35
  Elovl3 transcript Fold Change: -2.38
  Elovl5 transcript Fold Change: -2.41
  Ephb2 transcript Fold Change: -2.63
  Epm2aip1 transcript Fold Change: -2.65
  Fam57a transcript Fold Change: 2.55
  Fgf21 transcript Fold Change: -6.9
  Fxyd2 transcript Fold Change: -2.25
  Gdf15 transcript Fold Change: -3.99
  Glipr1 transcript Fold Change: -2.13
  Glipr2 transcript Fold Change: -2.29
  Gm16063 transcript Fold Change: 2.05
  Gm30692 transcript Fold Change: -2.13
  Gm31555 transcript Fold Change: 2.49
